Measured values as given in article PMC5218480 (PLoS ONE, 2017).

Tested on: MV-4-11 cells
Assay: Gene expression microarray analysis (Affymetrix PrimeView) and GSEA
Assay type: cell-based, human
Design: RFU PODN (11730768_x_at) / Fold change /veh PODN (11730768_x_at) / RFU LINC00158 (11744669_a_at) / Fold change /veh LINC00158 (11744669_a_at) / RFU DUSP10 (11751237_a_at) / Fold change /veh DUSP10 (11751237_a_at) / RFU ID3 (11757404_x_at) / Fold change /veh ID3 (11757404_x_at) / RFU PLEKHG5 (11737974_s_at) / Fold change /veh PLEKHG5 (11737974_s_at) / RFU LRRC4B (11730491_at) / Fold change /veh LRRC4B (11730491_at) / RFU GIMAP4 (11747438_a_at) / Fold change /veh GIMAP4 (11747438_a_at) / RFU KRT8 (11758183_x_at) / Fold change /veh KRT8 (11758183_x_at) / RFU CNN1 (11734310_a_at) / Fold change /veh CNN1 (11734310_a_at) / RFU VPS37D (11726825_at) / Fold change /veh VPS37D (11726825_at) / RFU C10orf10 (11716522_x_at) / Fold change /veh C10orf10 (11716522_x_at) / RFU KIR2DL2 /// KIR2DL4 /// KIR2DL5A /// KIR2DL5B /// KIR2DS1 /// KIR2DS2 /// KIR2DS3 /// KIR2DS4 /// KIR3DL3 /// KIR3DL3 /// KIR3DS1 (11738374_at) / Fold change /veh KIR2DL2 /// KIR2DL4 /// KIR2DL5A /// KIR2DL5B /// KIR2DS1 /// KIR2DS2 /// KIR2DS3 /// KIR2DS4 /// KIR3DL3 /// KIR3DL3 /// KIR3DS1 (11738374_at) / RFU C1QL1 (11718748_at) / Fold change /veh C1QL1 (11718748_at) / RFU TMPRSS4 (11747572_a_at) / Fold change /veh TMPRSS4 (11747572_a_at) / RFU HAMP (11756126_x_at) / Fold change /veh HAMP (11756126_x_at) / RFU RNFT2 (11725882_a_at) / Fold change /veh RNFT2 (11725882_a_at) / RFU NR4A2 (11747474_a_at) / Fold change /veh NR4A2 (11747474_a_at) / RFU ABCC12 (11746883_a_at) / Fold change /veh ABCC12 (11746883_a_at) / RFU TMEM136 (11760407_x_at) / Fold change /veh TMEM136 (11760407_x_at) / RFU CLDN22 /// WWC2 (11732394_at) / Fold change /veh CLDN22 /// WWC2 (11732394_at) / RFU HLA-DPB1 (11760878_x_at) / Fold change /veh HLA-DPB1 (11760878_x_at) / RFU SPINT1 (11716480_a_at) / Fold change /veh SPINT1 (11716480_a_at) / RFU GAP43 (11754022_s_at) / Fold change /veh GAP43 (11754022_s_at) / RFU A4GNT (11735810_at) / Fold change /veh A4GNT (11735810_at) / RFU PRB3 (11715151_x_at) / Fold change /veh PRB3 (11715151_x_at) / RFU TUBB4B (11761932_at) / Fold change /veh TUBB4B (11761932_at) / RFU CAPN14 (11732068_a_at) / Fold change /veh CAPN14 (11732068_a_at) / RFU TMCC2 (11721928_a_at) / Fold change /veh TMCC2 (11721928_a_at) / RFU IRGQ (11745062_a_at) / Fold change /veh IRGQ (11745062_a_at) / RFU FAM174B (11720279_a_at) / Fold change /veh FAM174B (11720279_a_at) / RFU TMPRSS4 (11748680_a_at) / Fold change /veh TMPRSS4 (11748680_a_at) / RFU FAM212B (11763350_a_at) / Fold change /veh FAM212B (11763350_a_at) / RFU PLEKHG5 (11743358_a_at) / Fold change /veh PLEKHG5 (11743358_a_at) / RFU ZSCAN30 (11745921_a_at) / Fold change /veh ZSCAN30 (11745921_a_at) / RFU CMKLR1 (11741424_a_at) / Fold change /veh CMKLR1 (11741424_a_at) / RFU LOC101060620 /// MAPK8IP1 (11723275_at) / Fold change /veh LOC101060620 /// MAPK8IP1 (11723275_at) / RFU SPTSSB (11747773_x_at) / Fold change /veh SPTSSB (11747773_x_at) / RFU PRSS12 (11739890_at) / Fold change /veh PRSS12 (11739890_at) / RFU BIN1 (11741810_x_at) / Fold change /veh BIN1 (11741810_x_at) / RFU WNT11 (11732464_a_at) / Fold change /veh WNT11 (11732464_a_at) / RFU C10orf10 (11716521_a_at) / Fold change /veh C10orf10 (11716521_a_at) / RFU C5orf56 (11738089_at) / Fold change /veh C5orf56 (11738089_at) / RFU CYB561 (11721691_x_at) / Fold change /veh CYB561 (11721691_x_at) / RFU ANKRD19P (11752326_a_at) / Fold change /veh ANKRD19P (11752326_a_at) / RFU OR2T12 /// OR2T33 /// OR2T8 (11738714_s_at) / Fold change /veh OR2T12 /// OR2T33 /// OR2T8 (11738714_s_at) / RFU VCAN (11748164_a_at) / Fold change /veh VCAN (11748164_a_at) / RFU JSRP1 (11732532_at) / Fold change /veh JSRP1 (11732532_at) / RFU KRTAP10-11 (11738290_x_at) / Fold change /veh KRTAP10-11 (11738290_x_at) / RFU MYO3A (11730013_a_at) / Fold change /veh MYO3A (11730013_a_at) / RFU EBF3 (11725865_a_at) / Fold change /veh EBF3 (11725865_a_at) / RFU CAMK2N1 (11719241_x_at) / Fold change /veh CAMK2N1 (11719241_x_at) / RFU C5orf56 (11738088_a_at) / Fold change /veh C5orf56 (11738088_a_at) / RFU OLFML3 (11715873_a_at) / Fold change /veh OLFML3 (11715873_a_at) / RFU LOC100653217 /// NTM (11731650_a_at) / Fold change /veh LOC100653217 /// NTM (11731650_a_at) / RFU MAPK11 (11762145_a_at) / Fold change /veh MAPK11 (11762145_a_at) / RFU FIZ1 (11724087_x_at) / Fold change /veh FIZ1 (11724087_x_at) / RFU OASL (11726364_x_at) / Fold change /veh OASL (11726364_x_at) / RFU SOX15 (11748057_x_at) / Fold change /veh SOX15 (11748057_x_at) / RFU CD79A (11719716_a_at) / Fold change /veh CD79A (11719716_a_at) / RFU HIST1H1D (11736915_at) / Fold change /veh HIST1H1D (11736915_at) / RFU CASKIN2 (11723855_a_at) / Fold change /veh CASKIN2 (11723855_a_at) / RFU LOC730098 (11760151_x_at) / Fold change /veh LOC730098 (11760151_x_at) / RFU OR4N2 (11742367_at) / Fold change /veh OR4N2 (11742367_at) / RFU PRRT2 (11749266_a_at) / Fold change /veh PRRT2 (11749266_a_at) / RFU SNX32 (11753110_a_at) / Fold change /veh SNX32 (11753110_a_at) / RFU CDHR5 (11726645_a_at) / Fold change /veh CDHR5 (11726645_a_at) / RFU RCAN1 (11760418_a_at) / Fold change /veh RCAN1 (11760418_a_at) / RFU FAM167A (11723789_a_at) / Fold change /veh FAM167A (11723789_a_at) / RFU FAM26E (11764081_at) / Fold change /veh FAM26E (11764081_at) / RFU ISYNA1 (11749810_s_at) / Fold change /veh ISYNA1 (11749810_s_at) / RFU ACY1 (11761880_at) / Fold change /veh ACY1 (11761880_at) / RFU 11764098_at / Fold change /veh 11764098_at / RFU SAMD14 (11745864_x_at) / Fold change /veh SAMD14 (11745864_x_at) / RFU NPB (11741838_a_at) / Fold change /veh NPB (11741838_a_at) / RFU TMPRSS6 (11731388_a_at) / Fold change /veh TMPRSS6 (11731388_a_at) / RFU KRTAP10-2 (11738614_at) / Fold change /veh KRTAP10-2 (11738614_at) / RFU ARHGAP8 /// PRR5-ARHGAP8 (11727945_x_at) / Fold change /veh ARHGAP8 /// PRR5-ARHGAP8 (11727945_x_at) / RFU KRTAP5-7 /// NADSYN1 (11734609_at) / Fold change /veh KRTAP5-7 /// NADSYN1 (11734609_at) / RFU RASL12 (11751679_a_at) / Fold change /veh RASL12 (11751679_a_at) / RFU CDKN2B (11736163_a_at) / Fold change /veh CDKN2B (11736163_a_at) / RFU PRF1 (11729649_at) / Fold change /veh PRF1 (11729649_at) / RFU, ZNF638 /// ZNF638-IT1 / Fold change vs veh, ZNF638 /// ZNF638-IT1 / RFU, PANK3 / Fold change vs veh, PANK3 / RFU, SH3YL1 / Fold change vs veh, SH3YL1 / RFU, ZEB2 / Fold change vs veh, ZEB2 / RFU, NRIP1 / Fold change vs veh, NRIP1 / RFU, PTTG1IP / Fold change vs veh, PTTG1IP / RFU, CAPN2 / Fold change vs veh, CAPN2 / RFU, MED14 / Fold change vs veh, MED14 / RFU, SNORA58 / Fold change vs veh, SNORA58 / RFU, C1orf63 / Fold change vs veh, C1orf63 / RFU, LRRFIP1 / Fold change vs veh, LRRFIP1 / RFU, NDUFAF7 / Fold change vs veh, NDUFAF7 / RFU, SLC12A2 / Fold change vs veh, SLC12A2 / RFU, IBTK / Fold change vs veh, IBTK / RFU, ESF1 / Fold change vs veh, ESF1 / Fold change vs veh, TMEM50B / RFU, TAOK1 / Fold change vs veh, TAOK1 / RFU, ACBD3 / Fold change vs veh, ACBD3 / RFU, TMA16 / Fold change vs veh, TMA16 / RFU, RWDD3 / Fold change vs veh, RWDD3 / RFU, BCAT1 / Fold change vs veh, BCAT1 / RFU, EDEM3 / Fold change vs veh, EDEM3 / RFU, TMEM33 / Fold change vs veh, TMEM33 / RFU, WDR75 / Fold change vs veh, WDR75 / RFU, AHCTF1 / Fold change vs veh, AHCTF1 / RFU, TFRC / Fold change vs veh, TFRC / RFU, ZDHHC17 / Fold change vs veh, ZDHHC17 / RFU, NOM1 / Fold change vs veh, NOM1 / RFU, ARL8B / Fold change vs veh, ARL8B / RFU, ZBTB11 / Fold change vs veh, ZBTB11 / RFU, TAMM41 / Fold change vs veh, TAMM41 / RFU, KIAA1704 /// LOC100996395 / Fold change vs veh, KIAA1704 /// LOC100996395 / RFU, ING1 / Fold change vs veh, ING1 / RFU, TRMT61B / Fold change vs veh, TRMT61B / RFU, FUBP3 / Fold change vs veh, FUBP3 / RFU, TP53 / Fold change vs veh, TP53 / RFU, TNKS2 / Fold change vs veh, TNKS2 / RFU, ZFP14 / Fold change vs veh, ZFP14 / RFU, ACTR2 / Fold change vs veh, ACTR2 / RFU, PPP3R1 / Fold change vs veh, PPP3R1 / RFU, PIK3R1 / Fold change vs veh, PIK3R1 / RFU, HNRNPA1 / Fold change vs veh, HNRNPA1 / RFU, RNF170 / Fold change vs veh, RNF170 / RFU, ZNF28 / Fold change vs veh, ZNF28 / RFU, RNGTT / Fold change vs veh, RNGTT / RFU, OGT / Fold change vs veh, OGT / RFU, BRD1 / Fold change vs veh, BRD1 / RFU, MARS / Fold change vs veh, MARS / RFU, ZNF655 / Fold change vs veh, ZNF655 / RFU, FAHD1 / Fold change vs veh, FAHD1 / RFU, BDP1 / Fold change vs veh, BDP1 / RFU, LRRCC1 / Fold change vs veh, LRRCC1 / RFU, ARID1A / Fold change vs veh, ARID1A / RFU, ZNF146 / Fold change vs veh, ZNF146 / RFU, ZNF330 / Fold change vs veh, ZNF330 / RFU, GPN3 / Fold change vs veh, GPN3 / RFU, C9orf123 / Fold change vs veh, C9orf123 / RFU, N4BP2L2 / Fold change vs veh, N4BP2L2 / RFU, ARFIP1 / Fold change vs veh, ARFIP1 / RFU, FAM179B / Fold change vs veh, FAM179B / RFU, BCL10 / Fold change vs veh, BCL10 / RFU, UHRF1BP1L / Fold change vs veh, UHRF1BP1L / RFU, BET1 / Fold change vs veh, BET1 / RFU, CNOT2 / Fold change vs veh, CNOT2 / RFU, ZNF268 / Fold change vs veh, ZNF268 / Fold change vs veh, ZNF507 / RFU, DGCR2 / Fold change vs veh, DGCR2 / RFU, WDSUB1 / Fold change vs veh, WDSUB1 / Fold change vs veh, HSP90B1 /// MIR3652 / RFU, ADSS / Fold change vs veh, ADSS / RFU, GK / Fold change vs veh, GK / RFU, ZNF148 / Fold change vs veh, ZNF148 / RFU, TAF9 / Fold change vs veh, TAF9 / RFU, SLC1A5 / Fold change vs veh, SLC1A5 / RFU, SLMO2 / Fold change vs veh, SLMO2 / RFU, ABCC4 / Fold change vs veh, ABCC4 / RFU, LOC101060439 /// RAP1B / Fold change vs veh, LOC101060439 /// RAP1B / RFU, RFX7 / Fold change vs veh, RFX7 / RFU, GTPBP10 / Fold change vs veh, GTPBP10 / RFU, CNEP1R1 / Fold change vs veh, CNEP1R1 / RFU, BIVM-ERCC5 /// ERCC5 / Fold change vs veh, BIVM-ERCC5 /// ERCC5 / RFU, ILF3 / Fold change vs veh, ILF3 / RFU 11762660_at / Fold change /veh 11762660_at / RFU VCAN (11757783_s_at) / Fold change /veh VCAN (11757783_s_at) / RFU DDX43 (11728927_at) / Fold change /veh DDX43 (11728927_at) / RFU KRT8 (11758188_x_at) / Fold change /veh KRT8 (11758188_x_at) / RFU NKD1 (11759106_at) / Fold change /veh NKD1 (11759106_at) / RFU SRD5A1 (11742802_a_at) / Fold change /veh SRD5A1 (11742802_a_at) / RFU TPSAB1 /// TPSB2 (11721975_s_at) / Fold change /veh TPSAB1 /// TPSB2 (11721975_s_at) / RFU GSTM3 (11746129_a_at) / Fold change /veh GSTM3 (11746129_a_at) / RFU IL23R (11737362_x_at) / Fold change /veh IL23R (11737362_x_at) / RFU TMEM51 (11727254_a_at) / Fold change /veh TMEM51 (11727254_a_at) / RFU PIWIL2 (11732686_x_at) / Fold change /veh PIWIL2 (11732686_x_at) / RFU ORM1 (11744905_x_at) / Fold change /veh ORM1 (11744905_x_at) / RFU CCDC152 (11743942_at) / Fold change /veh CCDC152 (11743942_at) / RFU ECM1 (11717891_a_at) / Fold change /veh ECM1 (11717891_a_at) / RFU IL23R (11748794_a_at) / Fold change /veh IL23R (11748794_a_at) / RFU TNFAIP8L3 (11732012_x_at) / Fold change /veh TNFAIP8L3 (11732012_x_at) / RFU MBOAT4 (11741988_at) / Fold change /veh MBOAT4 (11741988_at) / RFU 11764193_at / Fold change /veh 11764193_at / RFU TMEM53 (11763286_at) / Fold change /veh TMEM53 (11763286_at) / RFU MAGEB2 (11727129_at) / Fold change /veh MAGEB2 (11727129_at) / RFU TMEM200A (11744735_a_at) / Fold change /veh TMEM200A (11744735_a_at) / RFU CCDC152 (11751479_a_at) / Fold change /veh CCDC152 (11751479_a_at) / RFU FAM211A (11726209_a_at) / Fold change /veh FAM211A (11726209_a_at) / RFU RGS16 (11746705_a_at) / Fold change /veh RGS16 (11746705_a_at) / RFU VCAN (11755009_s_at) / Fold change /veh VCAN (11755009_s_at) / RFU RHOB (11743442_s_at) / Fold change /veh RHOB (11743442_s_at) / RFU RGS16 (11720943_a_at) / Fold change /veh RGS16 (11720943_a_at) / RFU RGS16 (11720944_at) / Fold change /veh RGS16 (11720944_at) / RFU, VPS4B / Fold change vs veh, VPS4B / RFU, CREB1 / Fold change vs veh, CREB1 / RFU, DNAJC13 / Fold change vs veh, DNAJC13 / RFU, GNAQ / Fold change vs veh, GNAQ / RFU, CDK5R1 / Fold change vs veh, CDK5R1 / RFU, ZRANB3 / Fold change vs veh, ZRANB3 / RFU, CUL4A / Fold change vs veh, CUL4A / RFU, CCNY / Fold change vs veh, CCNY / RFU, UFL1 / Fold change vs veh, UFL1 / RFU, COG3 / Fold change vs veh, COG3 / RFU, DIAPH2 / Fold change vs veh, DIAPH2 / RFU, SKA2 / Fold change vs veh, SKA2 / RFU, AFF3 / Fold change vs veh, AFF3 / RFU, LMF1 / Fold change vs veh, LMF1 / RFU, IPO11 / Fold change vs veh, IPO11 / RFU, DFFB / Fold change vs veh, DFFB / RFU, FOXP1 / Fold change vs veh, FOXP1 / RFU, CARD8 / Fold change vs veh, CARD8 / RFU, STRN3 / Fold change vs veh, STRN3 / RFU, ADK / Fold change vs veh, ADK / RFU, RASSF2 / Fold change vs veh, RASSF2 / RFU, WIPF1 / Fold change vs veh, WIPF1 / RFU, LARP1B / Fold change vs veh, LARP1B / RFU, RASA1 / Fold change vs veh, RASA1 / RFU, RB1 / Fold change vs veh, RB1 / RFU, PPFIA1 / Fold change vs veh, PPFIA1 / RFU, MAT2A / Fold change vs veh, MAT2A / RFU, CCT5 / Fold change vs veh, CCT5 / RFU, WDR92 / Fold change vs veh, WDR92 / RFU, CUX1 / Fold change vs veh, CUX1 / RFU, TTC7A / Fold change vs veh, TTC7A / RFU, TMEM135 / Fold change vs veh, TMEM135 / RFU, DEPTOR / Fold change vs veh, DEPTOR / RFU, CPM / Fold change vs veh, CPM / RFU, DNAJB6 / Fold change vs veh, DNAJB6 / RFU, CACNA2D3 / Fold change vs veh, CACNA2D3 / RFU, DTX4 / Fold change vs veh, DTX4 / RFU, TFCP2 / Fold change vs veh, TFCP2 / RFU, GMCL1 /// GMCL1P1 / Fold change vs veh, GMCL1 /// GMCL1P1 / RFU, AEBP2 / Fold change vs veh, AEBP2 / RFU, SNHG1 /// SNORD22 /// SNORD25 /// SNORD26 /// SNORD27 /// SNORD28 /// SNORD29 /// SNORD31 / Fold change vs veh, SNHG1 /// SNORD22 /// SNORD25 /// SNORD26 /// SNORD27 /// SNORD28 /// SNORD29 /// SNORD31 / Fold change (Aza/veh), C12orf56 (ProbeSet 11735607_a_at) / Fold change (ACY-1035/veh), C12orf56 (ProbeSet 11735607_a_at) / Fold change (Aza/veh), FGFR1OP (ProbeSet 11751329_s_at) / Fold change (ACY-1035/veh), FGFR1OP (ProbeSet 11751329_s_at) / Fold change (Aza/veh), VPS36 (ProbeSet 11739960_a_at) / Fold change (ACY-1035/veh), VPS36 (ProbeSet 11739960_a_at) / RFU SYPL1 (11715823_x_at) / Fold change /veh SYPL1 (11715823_x_at) / RFU IGFBP7 (11715501_s_at) / Fold change /veh IGFBP7 (11715501_s_at) / RFU REEP3 (11722064_at) / Fold change /veh REEP3 (11722064_at) / RFU IGLL1 (11728026_x_at) / Fold change /veh IGLL1 (11728026_x_at): dose or concentration left out as unconfirmed
Conditions: ProbeSet 11753616_s_at; LIST B

## Nc1ncn([C@@H]2O[C@H](CO)[C@@H](O)[C@H]2O)c(=O)n1 [azacitidine]
  RFU, ARL8B: 221.87 RFU
